# Data as given in patent US10849840B2, “Compositions and methods for stimulation MAGP-1 to improve the appearance of skin” (New Avon LLC, priority 2010, dated 2020).
# Tested on: MAGP-1
# Experiment: MAGP-1 screening method: MAGP-1 mRNA (RT-qPCR, normalized to GAPDH) in treated normal human dermal fibroblasts
# Assay type: cell-based
# Conditions: 48 hours treatment
# Experimental: Normal human dermal fibroblasts (Cascade Biologics) were cultured in 100 mm plates with 10 ml of DMEM with 10% serum and incubated for 24 hours at 37° C. and 10% CO2. After 24 hours, stock solutions of test compounds/plant extracts were made in appropriate solvents (e.g., DMSO). Cells were treated with test material or respective vehicle control diluted in growth medium for 48 hours in a humidified 37° C. incubator with 10% CO2. After incubation, growth medium from each plate was removed and 800 ul of TRIzol Reagent (Invitrogen) was added to the plates. Cell lysates were collected and placed in −80° C. freezer until RNA isolation and analysis.
# RNA was isolated by following the manufacturer's procedures. Briefly, the cell lysates were brought to room temperature. 0.2 ml of chloroform per 1 ml of TRIzol® Reagent was added. The tubes were shaken vigorously for 15 seconds and incubated at ambient temperature for 2 to 3 minutes. The samples were centrifuged at 12,000×g for 15 minutes at 2 to 8° C. Following centrifugation; the mixture separated into multiple phases, and RNA remains exclusively in the upper aqueous phase.
# The aqueous phase was then transferred to a fresh tube. The RNA was precipitated from the aqueous phase by mixing with 0.5 ml of isopropyl alcohol per 1 ml of TRIzol® Reagent was used for the initial homogenization. Samples were incubated at 15 to 30° C. for 10 minutes and centrifuged at 12,000×g for 10 minutes at 2 to 8° C. […] The sample was mixed by vortexing and centrifuged at 7,500×g for 5 minutes at 2 to 8° C. The RNA pellet was briefly air dried. RNA was dissolved in RNase-free water, and the concentration of total RNA was determined by using Nanodrop (Thermo Scientific, DE).
# Reverse Transcription (RT) reactions were conducted in a total volume of 20 μl. The RT mixture was prepared to contain 2 μl 10× TaqMan RT buffer, 4.4 μl 25 mM MgCl2, 4.0 μl dNTP mix, 1.0 μl Random Hexamer, 0.4 μl RNase Inhibitor, 0.5 μl MultiScribe Reverse Transcriptase (50 U/ml), 2.0 μg of RNA, and RNase-free water to make up the final volume of 20 μl. […] After the RT step, the reactions were stored at −20° C. for qPCR analysis.
# Quantitative Polymerase Chain Reaction (qPCR) was conducted in a total volume of 20 μl. Applied Biosystems (AB) Universal PCR master mix was used. The mixture was prepared to contain 10 μl of Taqman Universal PCR mix, 1 μl of primer and probe mix, 2 μl of RT product, and 7 μl of deionized water.
# The temperature profiles for QPCR were 50° C. for 2 min, and 95° C. for 10 min for 1 cycle, then at 95° C. for 15 sec, and 60° C. for 1 min for 40 cycles. Values for MAGP-1 mRNA were collected along with those for the reference genes GAPDH.
Compound,Activity Level (percent increase in mRNA for MAGP-1 vs vehicle control) (concentration 0.01%),Activity Level (percent increase in mRNA for MAGP-1 vs vehicle control) (concentration 0.001%)
"Cc1cccc(Cc2nc3ccccc3n2CC(=O)N2CCOCC2)c1 [Compound of structure II, 2-{2-[(3-methylphenyl)methyl]-1H-1,3-benzodiazol-1-yl}1-(morpholin-4-yl)ethan-1-one]",++++ (++++: >80%),–
lysine-threonine-phenylalanine-lysine [KTFK],–,++++ (++++: >80%)
"O=C(O)CCSCCC(=O)O [Thiodipropionic acid (TDPA), Thiodipropionic acid]",–,++ (++: 41-60%)
"CC(C)CN(Cc1ccc(OS(C)(=O)=O)cc1)S(=O)(=O)c1ccccc1 [Compound of structure I, 4-((N-isobutylphenylsulfonamido)methyl)phenyl methanesulfonate]",++++ (++++: >80%),–
